We go through 3 compounds from patent US20130216600A1, “ANTIMICROBIAL NANOPARTICLE CONJUGATES” (priority 2010, published 2013).

Where “and” joins values, the source holds several entries; their conditions need not be identical. Identical values can stand only once.

What is called MIC is the least concentration at which growth counts as inhibited.

For one data set, the system named is Candida albicans. Nature of the data set: MIC of AmB and DexOx-AmB conjugates (NCCLS M27A2E). The format is cell-based. To be noted: 48 hours. From the text: The “minimal inhibitory concentration” or “MIC” is defined as the lowest drug concentration that results in complete inhibition of visible growth of a microorganism.
A further data set relates to C. albicans. In words: Spectrum of antifungal activity, MIC after 8 hours. Type of data set: cell-based. To be noted: formulation.
In another data set the test system is C. glabrata. In words: Spectrum of antifungal activity, MIC after 8 hours. Type of data set: cell-based. Conditions: formulation. How it is done: (§1) In order to determine the spectrum of antifungal activity of the nanoparticles functionalized with amphotericin B, they were tested against four strains of Candida, namely: C parapsilosis, C krusei, C glabrata, and C tropicalis. The MIC values were determined after 8 hours of incubation with AmB, DexOx-AmB conjugate, unconjugated silica nanoparticles, and silica nanoparticles functionalized with DexOx-AmB.

Another data set has as its system C. krusei. In words: Spectrum of antifungal activity, MIC after 8 hours. The format is cell-based. To be noted: formulation. How it is done: as §1
The next data set deals with C. parapsilosis. In words: Spectrum of antifungal activity, MIC after 8 hours. The format is cell-based. To be noted: formulation. How it is done: as §1
For another data set, the system named is C. tropicalis. Nature of the data set: Spectrum of antifungal activity, MIC after 8 hours. The format is cell-based. Conditions: formulation. How it is done: as §1
For data set [1] the following is noted: The Merck Index 1989; cited from earlier work.
Data set [2] relates to Klebsiella pneumoniae ATCC 10031. Nature of the data set: MIC of DexOx-antibiotic conjugates and free drugs. The format is cell-based. To be noted: K. pneumoniae. How it is done: (§2) To evaluate the antibacterial activity of DexOx-Amp, DexOx-Van and DexOx-Gen, the minimal inhibitory concentration (MIC) was determined for each of the conjugates and compared with each of MIC values obtained for Amp, Van and Gen. The tests were performed against 5×10^5 cells/mL (in 0.2 mL of medium) of Staphylococcus aureus ATCC 6538 (S. aureus), Pseudomonas aeruginosa ATCC 15442 (P. aeruginosa), Klebsiella pneumoniae ATCC 10031 (K. pneumoniae) or Escherichia coli ATCC 25922 (E. coli), with concentrations of the drug between 0 and 120 μg/mL. The microorganisms were incubated at 37° C. for 18 h, and the absorbance at 600 nm was monitored every 30 min.

The subject of data set [3] is Pseudomonas aeruginosa ATCC 15442. Nature of the data set: MIC of DexOx-antibiotic conjugates and free drugs. Conditions: P. aeruginosa. The format is cell-based. How it is done: as §2

amphotericin B [AmB]: the “MIC (μg of conjugate/ml)” value with Candida albicans (30° C., n=6) was 0.9 ± 0.2 μg of conjugate/ml. The MIC in the data set on Candida albicans (unconjugated (soluble) AmB) was 0.9 µg/mL and 0.9 ± 0.2 µg/mL. In addition, the “Minimum Inhibitory Concentration (MIC)” value in the data set with C. albicans was 0.3; with C. glabrata it was 0.03; with C. krusei it was 0.1; in the data set on C. parapsilosis it was 0.3; in the data set with C. tropicalis, 0.08. For the same compound, in [1], the water solubility limit is 100 µg/mL.
Regarding gentamicin, the “MIC free drug (μg/mL)” value in data set [2] and in data set [3] was “MIC < 2 μg/mL” each time.
Turning to `CC1(C)S[C@@H]2[C@H](NC(=O)[C@H](N)c3ccccc3)C(=O)N2[C@H]1C(=O)O` [Amp, ampicillin], the MIC in data set [2] (Klebsiella pneumoniae, ATCC10031, free drug) was 20 to 40 µg/mL; in data set [3] (Pseudomonas aeruginosa, ATCC15442, free drug), > 120 µg/mL.
